Where “and” joins values, the source holds several entries; their conditions need not be identical. Equal values may be shown once.
Assays:
male ICR mice [1] = assay: Hot plate test, analgesic efficacy (central nervous system); format: in vivo, mouse; details: G2, 60 mg/kg oral
Procedure: The experimental method used in this example is an analgesic efficacy experiment method using a hot plate test described in the “Guidelines for efficacy test of herbal preparations—General efficacy tests for painful diseases” announced by the Ministry of Food and Drug Safety, wherein the analgesic effect in the central nervous system of a mouse is measured with a response time to a heat stimulus as an index through a hot plate. At this time, the response time to the heat stimulus is measured as a time elapsed until the experimental animal licks the paw or jumps.
(§1) 1) Celebrex (Celecoxib, Pfizer, 200 mg), Saline (Chungwae Pharmaceutical), Chrysanthemum extract (Green Cross HS) and male ICR mice (6 weeks old, weight 30-35 g, Orient Bio) were prepared. In this example, the Chrysanthemum extract was extracted by the organic solvent extraction method described in the above preparative example wherein it was extracted using 70% ethanol.
(§2) 2) 60 mg/kg of Celebrex and 50, 100 and 200 mg/kg of Chrysanthemum extracts were prepared and orally administered to ICR mice, respectively. At this time, Celebrex is converted into administration concentration and suspended in saline while vortexing, and Chrysanthemum extract is suspended in 0.5% CMC and sonicated at 20 to 25° C. for about 10 minutes.
According to the efficacy experimental method using the hot plate test method, as the experimental animals, 5-week-old male ICR mice were purchased, acclimatized for 1 week, and then tested. The hot plate was maintained at 55° C., and drug administration was performed 30 minutes before this method. The central pain response due to heat was measured with an index, i.e., the time elapsed until the mouse licks the hind paw or jumps starting from contacting with the hot plate.
Then, the pain response due to heat was measured with an index, i.e., the time elapsed until the mouse licks the hind paw or jumps starting from contacting with the hot plate.

male ICR mice [2] = assay: Acetic acid writhing test, analgesic efficacy (peripheral nerves); format: in vivo, mouse; details: G2, 60 mg/kg oral
Procedure: The experimental method used in this example is the “Acetic acid writhing test” described in the “Guidelines for efficacy test of herbal preparations—General efficacy tests for painful diseases” announced by the Ministry of Food and Drug Safety, wherein acetic acid is administered intraperitoneally to cause damage of capillaries and pain in the abdominal cavity, and the analgesic effect in peripheral nerves is measured using the abdominal contractile response as an index.
as §1, with “mg), acetic acid (Daejunghwageum),” for “mg),”, “(5” for “(6”, “old,” for “old, weight 30-35 g,”
as §2, with “mice.” for “mice, respectively.”
For the experimental method for analgesic effects to the acetic acid writhing test, as the experimental animals, 4-week-old male ICR mice were purchased, acclimatized for 1 week, and then tested. The Chrysanthemum extract and control drug, respectively, were orally administered to mice by dose, followed by intraperitoneal injection of acetic acid (0.7% acetic acid-physiological saline (0.1 ml/10 g B.W.)) 30 minutes after administration. Subsequently, from 5 minutes after injection, the number of occurrences of writhing was measured for 10 minutes (FIG. 3).
Subsequently, from 5 minutes after the intraperitoneal administration, the number of occurrences of writhing syndrome was counted for 10 minutes and results thereof are shown in FIG. 10 and Table 14.

In the case of `Cc1ccc(-c2cc(C(F)(F)F)nn2-c2ccc(S(N)(=O)=O)cc2)cc1` [Celecoxib], the “Response time, % of control (increase rate)” value (male ICR mice [1]) is reported as 53.9%, the “Response time, individual mouse” value (male ICR mice [1]; hot plate 55° C., mice 1-8) is reported as 26.94 s and 27.82 s and 35.55 s and 36.22 s and 28.54 s and 33.71 s and 32.71 s and 25.61 s and the “Response time, mean” value (male ICR mice [1]; n=8, control mean 20.07) is reported as 30.89 s. The “Writhing syndrome/10 min, individual mouse” value (male ICR mice [2]; 0.7% acetic acid i.p. 30 minutes after administration, mice 1-6) was 9.00 /10 min and 6.00 /10 min and 15.00 /10 min and 14.00 /10 min and 25.00 /10 min and 18.00 /10 min, the “Writhing syndrome/10 min, mean” value (male ICR mice [2]; n=6, control mean 28.33) was 14.50 /10 min and the inhibition at 60 mg/kg (male ICR mice [2]; Mus musculus, read-out: Writhing syndrome, % of control (inhibition rate, reduction compared to control)) was 48.9%.
